Data: patent publication US20130064812A1, “COMBINATION THERAPIES FOR HEMATOLOGIC MALIGNANCIES” (Gilead Calistoga LLC, priority 2011, published 2013)
Where “and” joins values, the source holds several entries; their conditions need not be identical. Equal values may be shown once. Entries after “also recorded” stand apart in the source; their conditions may differ. Read-outs that look alike come from different tables or passages of the source.

Legend:
[1] = system: leukemia cell lines; experiment: cells; assay type: cell-based; details: for apoptosis in leukemia cell lines: 1 μM or 10 μM, 24 hrs; for cellular viability of leukemia cell lines: 24 hours
Experimental: Proliferation assays (AlamarBlue®) on ALL cell lines grown in the presence of 10% FBS serum and measurements were taken at 24 hrs. Proliferation was measured in triplicate wells in 96-well plates.
The percentage of apoptotic cells was determined by Annexin V-FITC/7AAD staining.

[2] = molecular target: CIIbeta (Homo sapiens, UniProt O00750); experiment: InvitroGen Adapta kinase assay, CIIbeta; assay type: biochemical
[3] = system: patient chronic lymphocytic leukemia (CLL) cells; experiment: Apoptosis of patient CLL cells (Annexin V-FITC/PI); assay type: cell-based, human
Experimental: Peripheral blood was obtained from patients with B-CLL through the CLL Research Consortium from Ohio State University. Primary CD19-positive cells were isolated using Rosette-Sep (StemCell Technologies). Cells were maintained in RPMI 1640 (Invitrogen) supplemented with 10% heat-inactivated fetal bovine serum, 2 mmol/L L-glutamine, and penicillin (100 units/mL)/streptomycin (100 μg/mL; Invitrogen) at 37° C., 5% CO2, and high humidity. […] After incubation for 10 minutes at room temperature in a light-protected area, the specimens were quantified by flow cytometry on a FACScan™ (Becton Dickinson).

[4] = system: patient MM cells
Experimental: All MM cell lines were cultured in RPMI1640 medium. Bone marrow stromal cells (BMSCs) were cultured in Dulbecco's modification of Eagle's medium (DMEM) (Sigma) containing 15% fetal bovine serum, 2 mM L-glutamine (Life Technologies), 100 U/mL penicillin, and 100 μg/mL streptomycin (Life Technologies). […] Patient MM and BM cells were obtained from BM samples after informed consent was obtained per the Declaration of Helsinki and approval by the Institutional Review Board of the Dana-Farber Cancer Institute (Boston, Mass.). BM mononuclear cells were separated using Ficoll-Paque™ density sedimentation, and plasma cells were purified (>95% CD138+) by positive selection with anti-CD138 magnetic activated cell separation micro beads (Miltenyi Biotec, Auburn, Calif.). Tumor cells were also purified from the BM of MM patients using the RosetteSep negative selection system (StemCell Technologies, Vancouver, BC, Canada).
Data represent mean±SD viability, assessed by MTT assay of triplicate cultures, expressed as percentage of untreated controls.

[5] = system: phospho-Akt(Ser473); experiment: Constitutive Akt phosphorylation in leukemia and lymphoma cell lines (immunoblot); assay type: cell-based
Experimental: A large panel of leukemia and lymphoma cell lines was assessed for constitutive Akt phosphorylation. These cell lines represent B-lymphoma, T-lymphoma, ALL, Malignant histiocytosis, DLBCL and AML. […] Thereafter, cell were lysed, size-fractioned and immunoblotted with antibodies directed against phospho-Akt(Ser473).
The PI3K pathway is frequently deregulated in leukemia and lymphoma cell lines. […] In addition, PI3K pathway activation is dependent on p110δ.

[6] = system: DLBCL cell lines; experiment: pAKT in DLBCL cell lines; assay type: cell-based
[7] = system: CLL-NLC co-cultures; assay type: cell-based, human
Experimental: (§1) This pro-survival effect was abrogated by the compound of formula I, which reduced CLL cell viability to 85±3% of controls at 48 hours (mean±SEM, n=15, *P<0.05). […] BCR cross-linking induces secretion of the chemokines CCL3 and CCL4 by CLL cells, which was quantified in CLL supernatants by ELISA.
(§2) The CCL3 concentrations were reduced by the compound of formula I from 943±535 pg/mL to 156±8 pg/mL, and the CCL4 concentrations from 7433±4463 pg/mL to 316±53 pg/mL (mean±SEM, n=5, *P<0.05).

[8] = system: CLL cells; assay type: cell-based, human
Experimental: as §1, §2

[9] = system: CLL cells co-cultured with MSCs; experiment: CLL cells co-cultured with marrow stromal cells (MSC), DiOC6/PI viability; details: compound 5 μM; bendamustine, fludarabine, dexamethasone 10 μM
Excerpt: The viable cell population was characterized by bright DiOC6 staining and PI exclusion, and was gated in the lower right corner of each contour plot.
Viabilities of drug-treated samples were normalized to the viabilities of control samples at the respective timepoints (100%).

[10] = molecular target: PI3Kα (Mus musculus, UniProt P42337); experiment: Isoform specific cell-based assay: PDGF induced pAKT in Swiss-3T3 fibroblasts; details: Fibroblast Cell Line, n = 12
Experimental: Swiss-3T3 fibroblasts and RAW-264 were seeded on a 96-well tissue culture plate and allowed to reach at least 90% confluency. […] Akt phosphorylation and total AKT was detected by ELISA. […] Results are expressed as relative [^3H] thymidine incorporation induced by IgM crosslinking.

[11] = system: CLL cells with StromaNKTert; experiment: Viability / apoptosis of stroma-exposed CLL cells (Annexin V/PI); assay type: cell-based, human
Experimental: CLL cells were cultured under standardized conditions on stromal cell lines or primary NLC. Briefly, stromal cells were seeded one day prior to each experiment onto 24-well plates (Corning Life Sciences) at a concentration of 3×10^5 cells/mL/well and incubated at 37° C. in 5% CO2. Stromal cell confluence was confirmed by phase contrast microscopy, and CLL cells were then added onto the stromal cell layer at a concentration of 3×10^6 cells/mL. Cultures were then treated with compounds for the specified time periods. CLL cells were removed for analysis by gentle pipetting with media, and were then washed in PBS prior to analysis. A 24-hour co-culture time point was used unless otherwise indicated.
CLL cell viability was determined by analysis of Annexin V-FITC (BD Biosciences, San Diego, Calif.) and Propidium Iodine (PI) (Sigma) by FACS.
To determine whether PI3K inhibition increased the sensitivity of stroma-exposed CLL cells by increasing priming, PB-derived CLL cells cultured with or without StromaNKTert cells for 24 hours and were examined using Annexin-PI and BH3 profiling. […] Stromal co-culture of four CLL patient samples led to protection from apoptosis in untreated cells.

[12] = system: LB cells; experiment: LB cell proliferation with or without BMSCs ([3H]-thymidine uptake); assay type: cell-based, human; details: 0.625 μM-10 μM, 48 hours, presence of BMSC
Experimental: Cell proliferation was assessed using [^3H]-thymidine uptake assay. All data represent mean (±SD) of triplicate experiment.

Chain of CIIbeta (O00750 whole entry): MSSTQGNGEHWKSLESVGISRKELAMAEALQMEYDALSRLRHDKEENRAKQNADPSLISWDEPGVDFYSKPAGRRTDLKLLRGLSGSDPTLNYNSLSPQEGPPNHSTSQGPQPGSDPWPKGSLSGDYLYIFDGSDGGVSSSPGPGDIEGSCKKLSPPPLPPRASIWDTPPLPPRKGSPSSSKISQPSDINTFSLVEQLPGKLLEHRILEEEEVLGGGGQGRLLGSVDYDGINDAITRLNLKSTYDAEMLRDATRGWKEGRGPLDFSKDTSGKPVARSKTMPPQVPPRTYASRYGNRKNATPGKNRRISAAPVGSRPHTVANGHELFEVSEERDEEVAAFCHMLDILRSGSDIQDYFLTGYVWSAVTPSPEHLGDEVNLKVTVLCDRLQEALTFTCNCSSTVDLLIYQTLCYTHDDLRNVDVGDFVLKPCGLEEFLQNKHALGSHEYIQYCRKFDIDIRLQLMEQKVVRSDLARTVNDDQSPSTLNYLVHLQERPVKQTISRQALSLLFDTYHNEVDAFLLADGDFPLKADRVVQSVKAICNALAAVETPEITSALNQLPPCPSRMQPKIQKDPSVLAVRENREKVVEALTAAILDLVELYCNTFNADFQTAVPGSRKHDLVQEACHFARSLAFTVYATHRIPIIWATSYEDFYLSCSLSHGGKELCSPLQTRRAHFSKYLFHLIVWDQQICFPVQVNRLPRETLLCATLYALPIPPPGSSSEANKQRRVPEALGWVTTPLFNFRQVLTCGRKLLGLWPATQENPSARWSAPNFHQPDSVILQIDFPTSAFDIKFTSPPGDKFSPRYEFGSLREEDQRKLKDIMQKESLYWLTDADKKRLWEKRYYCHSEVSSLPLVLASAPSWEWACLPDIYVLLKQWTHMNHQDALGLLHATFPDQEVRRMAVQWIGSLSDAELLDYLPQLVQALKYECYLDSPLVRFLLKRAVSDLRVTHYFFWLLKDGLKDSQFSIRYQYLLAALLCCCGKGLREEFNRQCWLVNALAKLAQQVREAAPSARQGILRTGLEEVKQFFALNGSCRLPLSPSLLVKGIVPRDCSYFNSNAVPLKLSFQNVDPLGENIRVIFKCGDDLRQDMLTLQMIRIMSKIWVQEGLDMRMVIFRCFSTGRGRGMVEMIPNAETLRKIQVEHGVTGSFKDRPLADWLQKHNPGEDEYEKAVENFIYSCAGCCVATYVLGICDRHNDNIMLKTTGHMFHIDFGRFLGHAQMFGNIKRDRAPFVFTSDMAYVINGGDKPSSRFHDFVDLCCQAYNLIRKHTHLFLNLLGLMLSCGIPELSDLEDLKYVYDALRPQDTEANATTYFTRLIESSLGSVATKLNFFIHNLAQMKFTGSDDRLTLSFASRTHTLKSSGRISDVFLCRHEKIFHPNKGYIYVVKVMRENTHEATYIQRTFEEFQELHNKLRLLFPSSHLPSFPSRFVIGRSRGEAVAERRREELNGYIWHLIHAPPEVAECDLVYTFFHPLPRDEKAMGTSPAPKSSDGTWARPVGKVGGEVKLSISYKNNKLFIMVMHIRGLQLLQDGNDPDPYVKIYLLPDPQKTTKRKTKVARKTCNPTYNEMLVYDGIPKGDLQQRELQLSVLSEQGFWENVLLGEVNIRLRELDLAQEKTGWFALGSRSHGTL
Chain of PI3Kα (P42337 whole entry, canonical isoform): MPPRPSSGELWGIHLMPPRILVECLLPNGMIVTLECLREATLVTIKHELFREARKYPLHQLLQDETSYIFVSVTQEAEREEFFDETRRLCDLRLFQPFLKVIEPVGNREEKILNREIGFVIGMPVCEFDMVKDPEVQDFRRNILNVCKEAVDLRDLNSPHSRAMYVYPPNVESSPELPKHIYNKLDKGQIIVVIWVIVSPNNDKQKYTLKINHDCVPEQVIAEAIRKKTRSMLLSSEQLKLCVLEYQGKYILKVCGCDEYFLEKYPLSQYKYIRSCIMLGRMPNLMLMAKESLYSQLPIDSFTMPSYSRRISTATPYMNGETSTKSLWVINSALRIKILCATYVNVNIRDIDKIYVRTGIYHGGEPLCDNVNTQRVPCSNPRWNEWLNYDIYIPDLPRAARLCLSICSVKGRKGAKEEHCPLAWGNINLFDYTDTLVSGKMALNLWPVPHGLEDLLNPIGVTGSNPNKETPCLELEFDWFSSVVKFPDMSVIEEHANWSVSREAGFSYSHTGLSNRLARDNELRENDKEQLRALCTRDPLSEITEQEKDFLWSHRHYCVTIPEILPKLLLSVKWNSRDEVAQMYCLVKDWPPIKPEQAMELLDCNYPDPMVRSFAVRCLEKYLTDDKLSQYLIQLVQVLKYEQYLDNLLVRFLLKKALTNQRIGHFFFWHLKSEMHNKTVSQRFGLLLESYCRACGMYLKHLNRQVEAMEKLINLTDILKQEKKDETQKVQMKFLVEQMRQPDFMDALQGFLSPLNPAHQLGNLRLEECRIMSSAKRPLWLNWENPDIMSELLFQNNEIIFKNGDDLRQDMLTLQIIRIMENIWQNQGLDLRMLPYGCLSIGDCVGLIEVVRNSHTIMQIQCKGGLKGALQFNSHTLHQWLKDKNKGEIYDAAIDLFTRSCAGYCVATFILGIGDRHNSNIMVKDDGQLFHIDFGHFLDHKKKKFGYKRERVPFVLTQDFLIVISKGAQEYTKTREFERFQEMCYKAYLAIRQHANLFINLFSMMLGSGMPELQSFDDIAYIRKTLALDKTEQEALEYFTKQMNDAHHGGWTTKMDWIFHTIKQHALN
Chain of PI3Kα (P26450 whole entry partner, canonical isoform): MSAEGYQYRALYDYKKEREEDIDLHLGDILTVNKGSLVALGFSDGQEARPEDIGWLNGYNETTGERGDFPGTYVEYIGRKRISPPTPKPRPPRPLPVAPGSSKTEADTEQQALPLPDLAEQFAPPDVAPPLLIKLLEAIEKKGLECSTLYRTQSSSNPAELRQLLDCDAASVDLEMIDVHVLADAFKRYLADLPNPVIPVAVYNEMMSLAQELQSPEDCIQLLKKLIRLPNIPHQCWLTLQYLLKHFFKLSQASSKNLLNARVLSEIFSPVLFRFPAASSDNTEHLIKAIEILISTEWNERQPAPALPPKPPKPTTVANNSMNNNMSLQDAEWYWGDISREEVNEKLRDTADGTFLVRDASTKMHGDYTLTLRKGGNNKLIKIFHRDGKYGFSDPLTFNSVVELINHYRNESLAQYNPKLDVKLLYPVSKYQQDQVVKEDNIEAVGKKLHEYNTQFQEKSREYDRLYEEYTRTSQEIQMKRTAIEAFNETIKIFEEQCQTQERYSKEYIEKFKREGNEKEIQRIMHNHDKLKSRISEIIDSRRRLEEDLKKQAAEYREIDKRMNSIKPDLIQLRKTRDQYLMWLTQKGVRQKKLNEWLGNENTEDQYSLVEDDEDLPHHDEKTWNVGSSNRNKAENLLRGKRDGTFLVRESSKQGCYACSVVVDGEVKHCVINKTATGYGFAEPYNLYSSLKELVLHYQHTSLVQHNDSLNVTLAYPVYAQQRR

SMILES: CC[C@H](Nc1ncnc2[nH]cnc12)c1nc2cccc(F)c2c(=O)n1-c1ccccc1 [Compound I, 5-fluoro-3-phenyl-2-[1-(9H-purin-6-ylamino)-propyl]-3H-quinazolin-4-one]
- apoptosis in leukemia cell lines [1]: increase in apoptosis in the treated cells
- apoptosis in leukemia cell lines ([1]; listed as compound I): induces apoptosis in leukemia cell lines
- cytotoxicity at 10 µM ([1]; 24 h, read-out: reduction of viability): 40 to 50%
- cellular viability of leukemia cell lines [1]: strongly affected by 5-10 micromolar concentrations
- cellular viability of leukemia cell lines ([1]; listed as compound I): reduces cellular viability in a dose dependent manner
- IC50 [2]: > 1 µM
- apoptosis of CLL cells from poor prognosis patients [3]: induced apoptosis was seen
- apoptosis of CLL cells from refractory/relapsed patients [3]: induced apoptosis was also seen to be effective
- apoptosis of CLL patient cells ([3]; 96 hours): dose-dependent cytotoxicity; also recorded: results in apoptosis and the result appears to be dose-dependent
- apoptosis of CLL cells from poor prognosis patients ([3]; listed as compound I): increased apoptosis
- apoptosis of CLL cells from refractory/relapsed patients ([3]; listed as compound of formula I): increased apoptosis
- cytotoxicity against patient MM cells [4]: induced cytotoxicity against patient MM cells
- cell lines in which constitutive AKT phosphorylation was inhibited ([5]; 10 μM, 2 hrs, B-cell and T-cell lymphomas included): 11 out of 11
- constitutive Akt(Ser473) phosphorylation ([5]; 2 hours treatment): inhibits Akt phosphorylation; also recorded: Reduction in Akt(Ser473) was achieved for all cell lines
- cell lines in which constitutive AKT phosphorylation was inhibited ([5]; cell lines with constitutive p-AKT): 13 of 13 and 13 out of 13
- pAKT levels in DLBCL cell lines [6]: reduces pAKT levels in several DLBCL cell lines
- CXCL13 level ([7]; CLL-NLC co-cultures, from 151±35, n=4): 70 ± 27 pg/mL
- CCL3 concentration ([7]; CLL-NLC co-cultures, from 943±535 pg/mL, n=5): 156 ± 8 pg/mL
- CCL4 concentration ([7]; CLL-NLC co-cultures, from 7433±4463 pg/mL, n=5): 316 ± 53 pg/mL
- CLL cell viability, % of untreated controls ([7]; human, 48 h): 64±6%
- supernatant CCL3 concentration ([8]; BCR cross-linking, from 4060±1392 pg/mL, mean±SEM, n=6): 2901 ± 1220 pg/mL
- supernatant CCL4 level ([8]; BCR cross-linking, from 5721±1789 pg/mL, mean±SEM, n=6): 3223 ± 1311 pg/mL
- CLL cell viability, % of controls ([8]; human, 48 h): 85±3%
- CLL cell death / survival in co-culture with MSC [9]: sensitized CLL cells to the cytotoxic agents
- EC50 [10]: > 20 µM
- apoptosis in stroma-exposed CLL cells ([11]; 10 μM, untreated less than 10%): More than 40%
- apoptosis versus control in the absence of stroma ([11]; four patient samples, 24 hours): induce more apoptosis than the control
- apoptosis versus control in the presence of stroma ([11]; four patient samples, 24 hours): induce significantly more apoptosis than the control
- stroma-mediated resistance (CLL cell viability) ([11]; two patients, 24 hours, ABT-737 100 nM, compound I 10 μM): profound stroma-mediated resistance
- sensitivity of CLL cells to ABT-737 in the presence of stroma ([11]; two resistant CLL patient samples): restored sensitivity of CLL cells to ABT-737 in the presence of stroma
- LB cell growth [12]: LB cell growth is reduced
